Reference: EP0908457B1, “3-(1,2-benzisothiazol- and isoxazol-5-Y1)-2,4(1H,3H)-pyrimidinedione or thione and 3-(1,2-benzisothiazol- and isoxazol-5-y1)-4(3H)-pyrimidinone or thione herbicidal agents” (BASF AKTIENGESELLSCHAFT, priority 1997, dated 1999)

Legend:
Assay type in all cases: in vivo
[1] = system: Echinochloa oryzoides (Ard.) Fritsch.; test: Preemergence weed control under flooded paddy conditions, ECHORC (Watergrass (Calif.)); conditions: flooded paddy; for ECHORC herbicidal rating / herbicidal effect rating, ECHORC: preemergence, rated three to four weeks after treatment; for ECHORC: preemergence weeds, herbicidal effect rating 0-9, three to four weeks after treatment; as to herbicidal effect rating, ECHORC: meaning of each grade not given here
Cyperus iria = test: Preemergence weed control under flooded paddy conditions, CYPIR (Rice Flatsedge); conditions: flooded paddy; for CYPIR herbicidal rating / herbicidal effect rating, CYPIR: preemergence, rated three to four weeks after treatment; for CYPIR: preemergence weeds, herbicidal effect rating 0-9, three to four weeks after treatment; as to herbicidal effect rating, CYPIR: meaning of each grade not given here
[2] = system: Cyperus serotinus, Rottb.; test: Preemergence weed control under flooded paddy conditions, CYPSE (Flatsedge); conditions: for CYPSE herbicidal rating / herbicidal effect rating, CYPSE: preemergence, rated three to four weeks after treatment; for CYPSE: preemergence weeds, herbicidal effect rating 0-9, three to four weeks after treatment; as to herbicidal effect rating, CYPSE: meaning of each grade not given here
Sagittaria pygmaea, L. = test: Preemergence weed control under flooded paddy conditions, SAGPY (Arrowhead (Pygmaea)); conditions: flooded paddy; for SAGPY herbicidal rating / herbicidal effect rating, SAGPY: preemergence, rated three to four weeks after treatment; for SAGPY: preemergence weeds, herbicidal effect rating 0-9, three to four weeks after treatment; as to herbicidal effect rating, SAGPY: meaning of each grade not given here
[3] = system: Monochoria vaginalis, Presl.; test: Preemergence weed control under flooded paddy conditions, MOOVA (Monochoria); conditions: flooded paddy; for MOOVA: preemergence weeds, herbicidal effect rating 0-9, three to four weeks after treatment; for MOOVA herbicidal rating: preemergence, rated three to four weeks after treatment

Compound | ECHORC herbicidal rating ([1]; 0.0320 kg/ha) | ECHORC herbicidal rating ([1]; 0.0620 kg/ha) | ECHORC herbicidal rating ([1]; 0.1250 kg/ha) | ECHORC herbicidal rating ([1]; 0.2500 kg/ha) | CYPIR herbicidal rating (Cyperus iria; 0.0320 kg/ha) | CYPIR herbicidal rating (Cyperus iria; 0.0620 kg/ha) | CYPIR herbicidal rating (Cyperus iria; 0.1250 kg/ha) | CYPIR herbicidal rating (Cyperus iria; 0.2500 kg/ha) | SAGPY herbicidal rating (Sagittaria pygmaea, L.; 0.0320 kg/ha) | SAGPY herbicidal rating (Sagittaria pygmaea, L.; 0.0620 kg/ha) | SAGPY herbicidal rating (Sagittaria pygmaea, L.; 0.1250 kg/ha) | ECHORC ([1]; 0.0620 kg/ha) | ECHORC ([1]; 0.1250 kg/ha) | ECHORC ([1]; 0.2500 kg/ha) | CYPIR (Cyperus iria; 0.0620 kg/ha) | CYPIR (Cyperus iria; 0.1250 kg/ha) | CYPIR (Cyperus iria; 0.2500 kg/ha) | CYPSE ([2]; 0.0620 kg/ha) | CYPSE ([2]; 0.2500 kg/ha) | MOOVA ([3]; 0.0620 kg/ha) | other results
CC(C)N(C(C)C)S(=O)(=O)NC(=O)C(C)(C)c1nsc2ccc(-n3c(=O)cc(C(F)(F)F)n(C)c3=O)cc12 [Example 511, 1,2-Benzisothiazole-3-acetamide, 5-[3,6-dihydro-3-methyl-2,6-dioxo-4-(trifluoromethyl)-1(2H)-pyrimidinyl]-N-(diisopropylsulfamoyl)-alpha, alpha-dimethyl-] | 0.0 | 2.0 | 5.0 | 7.0 | 0.0 | 0.0 | 2.0 | 7.0 | 0.0 | 0.0 | 0.0 | – | – | – | – | – | – | – | – | – | CYPSE herbicidal rating ([2]; 0.0320 kg/ha): 0.0; CYPSE herbicidal rating ([2]; 0.0620 kg/ha): 0.0; CYPSE herbicidal rating ([2]; 0.1250 kg/ha): 3.0; CYPSE herbicidal rating ([2]; 0.2500 kg/ha): 3.0; SAGPY herbicidal rating (Sagittaria pygmaea, L.; 0.2500 kg/ha): 7.0
CC(=O)OCCSC(SCCOC(C)=O)c1nsc2ccc(-n3c(=O)cc(C(F)(F)F)n(C)c3=O)cc12 [Example 418, 1,2-Benzisothiazole-3-carboxaldehyde, 5-[3,6-dihydro-3-methyl-2,6-dioxo-4-(trifluoromethyl)-1(2H)-pyrimidinyl]-, 3-[bis(2-hydroxyethyl)dithioacetal], diacetate (diester)] | – | – | – | – | – | – | – | – | – | – | – | 0.0 | 1.0 | 3.0 | 0.0 | 0.0 | 0.0 | 0.0 | 0.0 | 0.0 | MOOVA ([3]; 0.1250 kg/ha): 0.0; MOOVA ([3]; 0.2500 kg/ha): 0.0
CC(OS(=O)(=O)C(C)C)c1nsc2ccc(-n3c(=O)cc(C(F)(F)F)n(C)c3=O)cc12 (stereo not drawn) [Example 413, 2,4(1H,3H)-Pyrimidinedione, 3-[3-(1-hydroxyethyl)-1,2-benzisothiazol-5-yl]-1-methyl-6-(trifluoromethyl)-, 1-methylethanesulfonate (ester)] | – | – | – | – | – | – | – | – | – | – | – | 0.0 | 0.0 | 6.0 | 2.0 | 5.0 | 7.0 | 3.0 | 9.0 | 9.0 | ECHORC ([1]; 0.0320 kg/ha): 0.0; CYPIR (Cyperus iria; 0.0320 kg/ha): 0.0; CYPSE ([2]; 0.0320 kg/ha): 0.0; CYPSE ([2]; 0.1250 kg/ha): 5.0; MOOVA ([3]; 0.0320 kg/ha): 7.0; MOOVA ([3]; 0.1250 kg/ha): 9.0; MOOVA ([3]; 0.2500 kg/ha): 9.0
CC(=O)OCCOC(=O)COc1ccc(C)cc1-c1nsc2ccc(-n3c(=O)cc(C(F)(F)F)n(C)c3=O)cc12 [Example 578, Acetic acid, {{2-{5-[3,6-dihydro-3-methyl-2,6-dioxo-4-(trifluoromethyl)-1(2H)-pyrimidinyl]-1,2-benzisothiazol-3-yl}-p-tolyl}oxy}-, 2-hydroxyethyl ester, acetate (ester)] | – | – | – | – | – | – | – | – | – | – | – | – | – | – | – | – | – | – | – | – | herbicidal effect rating, ECHORC ([1]; Rate 0.0320 kg/ha): 5.0; herbicidal effect rating, ECHORC ([1]; Rate 0.0620 kg/ha): 6.0; herbicidal effect rating, ECHORC ([1]; Rate 0.1250 kg/ha): 7.0; herbicidal effect rating, ECHORC ([1]; Rate 0.2500 kg/ha): 9.0; herbicidal effect rating, CYPIR (Cyperus iria; Rate 0.0320 kg/ha): 4.0; herbicidal effect rating, CYPIR (Cyperus iria; Rate 0.0620 kg/ha): 5.0; herbicidal effect rating, CYPIR (Cyperus iria; Rate 0.1250 kg/ha): 5.0; herbicidal effect rating, CYPIR (Cyperus iria; Rate 0.2500 kg/ha): 7.0; herbicidal effect rating, CYPSE ([2]; Rate 0.0320 kg/ha): 3.0; herbicidal effect rating, CYPSE ([2]; Rate 0.0620 kg/ha): 6.0; herbicidal effect rating, CYPSE ([2]; Rate 0.1250 kg/ha): 6.0; herbicidal effect rating, CYPSE ([2]; Rate 0.2500 kg/ha): 9.0; herbicidal effect rating, SAGPY (Sagittaria pygmaea, L.; Rate 0.0320 kg/ha): 3.0; herbicidal effect rating, SAGPY (Sagittaria pygmaea, L.; Rate 0.0620 kg/ha): 6.0; herbicidal effect rating, SAGPY (Sagittaria pygmaea, L.; Rate 0.1250 kg/ha): 6.0; herbicidal effect rating, SAGPY (Sagittaria pygmaea, L.; Rate 0.2500 kg/ha): 9.0
CC(=O)OCCCSC(SCCCOC(C)=O)c1nsc2ccc(-n3c(=O)cc(C(F)(F)F)n(C)c3=O)cc12 [Example 426, 1,2-Benzisothiazole-3-carboxaldehyde, 5-[3,6-dihydro-3-methyl-2,6-dioxo-4-(trifluoromethyl)-1(2H)-pyrimidinyl]-, 3-[bis(3-hydroxypropyl)dithioacetal], diacetate (diester)] | – | – | – | – | – | – | – | – | – | – | – | 5.0 | 5.0 | 9.0 | 7.0 | 7.0 | 9.0 | 0.0 | 2.0 | – | ECHORC ([1]; 0.0320 kg/ha): 5.0; CYPIR (Cyperus iria; 0.0320 kg/ha): 5.0; CYPSE ([2]; 0.0320 kg/ha): 0.0; CYPSE ([2]; 0.1250 kg/ha): 0.0; SAGPY (Sagittaria pygmaea, L.; 0.0320 kg/ha): 0.0; SAGPY (Sagittaria pygmaea, L.; 0.0620 kg/ha): 2.0; SAGPY (Sagittaria pygmaea, L.; 0.1250 kg/ha): 4.0; SAGPY (Sagittaria pygmaea, L.; 0.2500 kg/ha): 4.0
COCC(=O)OCc1nsc2ccc(-n3c(=O)cc(C(F)(F)F)n(C)c3=O)cc12 [Example 495, 2,4(1H,3H)-Pyrimidinedione, 3-[3-(hydroxymethyl)-1,2-benzisothiazol-5-yl]-1-methyl-6-(trifluoromethyl)-, methoxyacetate (ester)] | 3.0 | 4.0 | 5.0 | 7.0 | 6.0 | 6.0 | 7.0 | 9.0 | 0.0 | 0.0 | 3.0 | – | – | – | – | – | – | – | – | – | MOOVA herbicidal rating ([3]; 0.0320 kg/ha): 7.0; MOOVA herbicidal rating ([3]; 0.0620 kg/ha): 7.0; MOOVA herbicidal rating ([3]; 0.1250 kg/ha): 9.0; MOOVA herbicidal rating ([3]; 0.2500 kg/ha): 9.0
